Results reported in the supplement of paper PMC8671470.

test system: MOLM-13; assay: cell viability (% survival relative to DMSO control, bortezomib = 0%); higher = less cytotoxic; details: 1000 nM; 72 h
Outline: (§1)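 Seeding density for each of the 10 AML and 5 CML cell lines was titrated to the linear growth range. Cells went into 384-well plates pre-printed in duplicate with compounds at 1, 10, 100, 1000 or 10000 nM and were held for 72 h at 37 °C with 5% CO2. CellTiter-Glo luminescence then provided the readout. Percent survival is expressed relative to vehicle at 100% and a 10 µM positive control at 0%, averaged over duplicates.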

SMILES	cell viability [%]
O=C(CCl)N(CCCNC(=O)C(F)(F)F)c1ccc([N+](=O)[O-])cc1 [ML175]	0.57
CN(C)C(=N)NC(=N)N [Metformin]	102
Cl.OC[C@H]1NC[C@H](O)[C@@H](O)[C@H]1O [Migalastat]	116
OCCN1C[C@H](O)[C@@H](O)[C@H](O)[C@H]1CO [Miglitol]	123
CCCCCCCCCCCCC/C=C/[C@@H](O)[C@H](CO)N(C)C [N,N-Dimethylsphingosine]	104
CCCCCCCNC=O [N-Heptyl-Formamide]	108

same assay, conditions: 10000 nM; 72 h

SMILES	cell viability [%]
O=C(Oc1ccc([N+](=O)[O-])cc1)N1CCC(C(O)(c2ccc3c(c2)OCO3)c2ccc3c(c2)OCO3)CC1 [JZL184]	92.9
O=C1N[C@@H]2[C@@H](O)[C@@H](O)[C@H](O)[C@@H](CO)N2C1=O [Kifunensine]	130
CC(C)(CCCCCCCCCCC(C)(C)CC(=O)O)CC(=O)O [MEDICA 16]	96.7
Cc1nnc(-c2ccc(N3CCC(Oc4ccccc4C(F)(F)F)CC3)nn2)s1 [MF-438]	36.6
CC(C)c1ccc2c(c1)c(SC(C)(C)C)c(CC(C)(C)C(=O)O)n2Cc1ccc(Cl)cc1 [MK-886]	88.4
O=C(CCl)N(CCCNC(=O)C(F)(F)F)c1ccc([N+](=O)[O-])cc1 [ML175]	-1.51
CN(C)C(=N)NC(=N)N [Metformin]	83.5
Cl.OC[C@H]1NC[C@H](O)[C@@H](O)[C@H]1O [Migalastat]	101
OCCN1C[C@H](O)[C@@H](O)[C@H](O)[C@H]1CO [Miglitol]	99.1
CCCCCCCCCCCCC/C=C/[C@@H](O)[C@H](CO)N(C)C [N,N-Dimethylsphingosine]	71.1
CCCCCCCNC=O [N-Heptyl-Formamide]	90.3

test system: NOMO-1; assay: as above; details: 1 nM; 72 h
Outline: as §1

SMILES	cell viability [%]
O=C(Oc1ccc([N+](=O)[O-])cc1)N1CCC(C(O)(c2ccc3c(c2)OCO3)c2ccc3c(c2)OCO3)CC1 [JZL184]	101
O=C1N[C@@H]2[C@@H](O)[C@@H](O)[C@H](O)[C@@H](CO)N2C1=O [Kifunensine]	103
CC(C)(CCCCCCCCCCC(C)(C)CC(=O)O)CC(=O)O [MEDICA 16]	100
Cc1nnc(-c2ccc(N3CCC(Oc4ccccc4C(F)(F)F)CC3)nn2)s1 [MF-438]	97.9
CC(C)c1ccc2c(c1)c(SC(C)(C)C)c(CC(C)(C)C(=O)O)n2Cc1ccc(Cl)cc1 [MK-886]	120
O=C(CCl)N(CCCNC(=O)C(F)(F)F)c1ccc([N+](=O)[O-])cc1 [ML175]	96.3
CN(C)C(=N)NC(=N)N [Metformin]	109
Cl.OC[C@H]1NC[C@H](O)[C@@H](O)[C@H]1O [Migalastat]	101
OCCN1C[C@H](O)[C@@H](O)[C@H](O)[C@H]1CO [Miglitol]	98.2
CCCCCCCCCCCCC/C=C/[C@@H](O)[C@H](CO)N(C)C [N,N-Dimethylsphingosine]	92
CCCCCCCNC=O [N-Heptyl-Formamide]	110

same assay, conditions: 10 nM; 72 h

SMILES	cell viability [%]
O=C(Oc1ccc([N+](=O)[O-])cc1)N1CCC(C(O)(c2ccc3c(c2)OCO3)c2ccc3c(c2)OCO3)CC1 [JZL184]	99.5
O=C1N[C@@H]2[C@@H](O)[C@@H](O)[C@H](O)[C@@H](CO)N2C1=O [Kifunensine]	102
CC(C)(CCCCCCCCCCC(C)(C)CC(=O)O)CC(=O)O [MEDICA 16]	95.3
Cc1nnc(-c2ccc(N3CCC(Oc4ccccc4C(F)(F)F)CC3)nn2)s1 [MF-438]	99.2
CC(C)c1ccc2c(c1)c(SC(C)(C)C)c(CC(C)(C)C(=O)O)n2Cc1ccc(Cl)cc1 [MK-886]	110
O=C(CCl)N(CCCNC(=O)C(F)(F)F)c1ccc([N+](=O)[O-])cc1 [ML175]	97.8
CN(C)C(=N)NC(=N)N [Metformin]	93.6
Cl.OC[C@H]1NC[C@H](O)[C@@H](O)[C@H]1O [Migalastat]	103
OCCN1C[C@H](O)[C@@H](O)[C@H](O)[C@H]1CO [Miglitol]	102
CCCCCCCCCCCCC/C=C/[C@@H](O)[C@H](CO)N(C)C [N,N-Dimethylsphingosine]	101
CCCCCCCNC=O [N-Heptyl-Formamide]	96.7

same assay, conditions: 100 nM; 72 h

SMILES	cell viability [%]
O=C(Oc1ccc([N+](=O)[O-])cc1)N1CCC(C(O)(c2ccc3c(c2)OCO3)c2ccc3c(c2)OCO3)CC1 [JZL184]	102
O=C1N[C@@H]2[C@@H](O)[C@@H](O)[C@H](O)[C@@H](CO)N2C1=O [Kifunensine]	110
CC(C)(CCCCCCCCCCC(C)(C)CC(=O)O)CC(=O)O [MEDICA 16]	101
Cc1nnc(-c2ccc(N3CCC(Oc4ccccc4C(F)(F)F)CC3)nn2)s1 [MF-438]	92.8
CC(C)c1ccc2c(c1)c(SC(C)(C)C)c(CC(C)(C)C(=O)O)n2Cc1ccc(Cl)cc1 [MK-886]	106
O=C(CCl)N(CCCNC(=O)C(F)(F)F)c1ccc([N+](=O)[O-])cc1 [ML175]	97.8
CN(C)C(=N)NC(=N)N [Metformin]	95.4
Cl.OC[C@H]1NC[C@H](O)[C@@H](O)[C@H]1O [Migalastat]	104
OCCN1C[C@H](O)[C@@H](O)[C@H](O)[C@H]1CO [Miglitol]	100
CCCCCCCCCCCCC/C=C/[C@@H](O)[C@H](CO)N(C)C [N,N-Dimethylsphingosine]	100
CCCCCCCNC=O [N-Heptyl-Formamide]	100

same assay, conditions: 1000 nM; 72 h

SMILES	cell viability [%]
O=C(Oc1ccc([N+](=O)[O-])cc1)N1CCC(C(O)(c2ccc3c(c2)OCO3)c2ccc3c(c2)OCO3)CC1 [JZL184]	102
O=C1N[C@@H]2[C@@H](O)[C@@H](O)[C@H](O)[C@@H](CO)N2C1=O [Kifunensine]	88.7
CC(C)(CCCCCCCCCCC(C)(C)CC(=O)O)CC(=O)O [MEDICA 16]	101
Cc1nnc(-c2ccc(N3CCC(Oc4ccccc4C(F)(F)F)CC3)nn2)s1 [MF-438]	108
CC(C)c1ccc2c(c1)c(SC(C)(C)C)c(CC(C)(C)C(=O)O)n2Cc1ccc(Cl)cc1 [MK-886]	107
O=C(CCl)N(CCCNC(=O)C(F)(F)F)c1ccc([N+](=O)[O-])cc1 [ML175]	0.0839
CN(C)C(=N)NC(=N)N [Metformin]	97.1
Cl.OC[C@H]1NC[C@H](O)[C@@H](O)[C@H]1O [Migalastat]	100
OCCN1C[C@H](O)[C@@H](O)[C@H](O)[C@H]1CO [Miglitol]	93.7
CCCCCCCCCCCCC/C=C/[C@@H](O)[C@H](CO)N(C)C [N,N-Dimethylsphingosine]	94.1
CCCCCCCNC=O [N-Heptyl-Formamide]	113

same assay, conditions: 10000 nM; 72 h

SMILES	cell viability [%]
O=C(Oc1ccc([N+](=O)[O-])cc1)N1CCC(C(O)(c2ccc3c(c2)OCO3)c2ccc3c(c2)OCO3)CC1 [JZL184]	95.2
O=C1N[C@@H]2[C@@H](O)[C@@H](O)[C@H](O)[C@@H](CO)N2C1=O [Kifunensine]	100
CC(C)(CCCCCCCCCCC(C)(C)CC(=O)O)CC(=O)O [MEDICA 16]	103
